Test results reported in patent publication US4387238A, “Epoxysuccinamic acid compounds” (Taisho Pharmaceutical Co., Ltd., priority 1978, dated 1983).

What follows are compounds tested against T1, papain (Carica papaya, UniProt P00784) (assay: Papain inhibitory activity (milk casein proteolysis)). Conditions: amount of inhibitor for 50% inhibition; pH 6.8, 40° C., casein substrate.
T1 construct: purchased Sigma Chem. Co
T1 sequence (P00784 134-345): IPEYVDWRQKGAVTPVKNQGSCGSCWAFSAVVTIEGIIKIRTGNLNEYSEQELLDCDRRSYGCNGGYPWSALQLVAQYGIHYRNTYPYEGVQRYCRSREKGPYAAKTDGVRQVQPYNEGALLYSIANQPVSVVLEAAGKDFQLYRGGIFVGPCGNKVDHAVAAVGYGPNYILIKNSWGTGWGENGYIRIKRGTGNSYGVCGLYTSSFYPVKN
Assay type: biochemical
Design: unit not given beside the values
Protocol: Papain inhibitory activity of the compounds of the present invention was assayed as follows: To 0.5 ml of a solution of papain (80 μg/ml, Sigma Chem. Co., 2x, cry.), were added 0.25 ml of 40 mM cysteine dissolved in 20 mM disodium ethylenediamine tetraacetic acid solution adjusted pH to 6.8 with sodium hydroxide and 0.25 ml of 33 mM phosphate buffer (pH 6.8) with or without inhibitor. After incubation for 15 minutes at 40° C., the resulting mixture was added to 5 ml of 1% milk casein solution in the same buffer as described above, and further incubated for 10 minutes at 40° C. Then the mixture was mixed with 5 ml of 0.44 M trichloroacetic acid solution and followed by filtration with a sheet of Toyo filter paper No. 4.
The extinction of the filtrate was read at 280 nm. The percent inhibition was calculated from the formula, 100×(B-A)/B; wherein B stands for the absorbance without inhibitor and A for the absorbance with inhibitor. The compound Nos. in Table 2 are as defined in Examples as described hereinafter.
`CCOC(=O)[C@@H]1O[C@H]1C(=O)Nc1cccc(C(F)(F)F)c1` (relative stereo) [Compound No. 2, ethyl N-3'-trifluoromethylphenyl-2,3-epoxysuccinamate] was tested, and the ID50 was 40.30 γ.
`CCOC(=O)[C@@H]1O[C@H]1C(=O)Nc1cccc(C(C)=O)c1` (relative stereo) [Compound No. 3, ethyl N-3'-acetylphenyl-2,3-epoxysuccinamate] was tested, and the ID50 was 34.72 γ.
For `CCOC(=O)[C@@H]1O[C@H]1C(=O)Nc1ccccc1O` (relative stereo) [Compound No. 4, ethyl N-2'-hydroxyphenyl-2,3-epoxysuccinamate], the ID50 was 138.88 γ.
In the case of `CCOC(=O)[C@@H]1O[C@H]1C(=O)Nc1ccc(Br)cc1` (relative stereo) [Compound No. 6, ethyl N-4'-bromophenyl-2,3-epoxysuccinamate], the ID50 is reported as 25.51 γ.
`CCOC(=O)c1ccccc1NC(=O)[C@@H]1O[C@H]1C(=O)OCC` (relative stereo) [Compound No. 7, ethyl N-2'-carboethoxyphenyl-2,3-epoxysuccinamate] was tested, and the ID50 was 105.93 γ.
For `CCOC(=O)[C@@H]1O[C@H]1C(=O)Nc1c(Cl)cccc1Cl` (relative stereo) [Compound No. 8, ethyl N-2',6'-dichlorophenyl-2,3-epoxysuccinamate], the ID50 was 208.33 γ.
`CCOC(=O)[C@@H]1O[C@H]1C(=O)Nc1c(Br)cc(Br)cc1Br` (relative stereo) [Compound No. 9, ethyl N-2',4',6'-tribromophenyl-2,3-epoxysuccinamate] was tested, and the ID50 was 120.19 γ.
`CCOC(=O)[C@@H]1O[C@H]1C(=O)Nc1cccc(F)c1` (relative stereo) [Compound No. 10, ethyl N-3'-fluorophenyl-2,3-epoxysuccinamate] was tested, and the ID50 was 32.05 γ.
For `CCOC(=O)[C@@H]1O[C@H]1C(=O)Nc1ccccn1` (relative stereo) [Compound No. 11, ethyl N-2'-pyridinyl-2,3-epoxysuccinamate], the ID50 was 25.05 γ.
`CCOC(=O)[C@@H]1O[C@H]1C(=O)Nc1cccc2cccnc12` (relative stereo) [Compound No. 12, ethyl N-8'-quinolinyl-2,3-epoxysuccinamate] was tested, and the ID50 was 20.16 γ.
For `CCOC(=O)[C@@H]1O[C@H]1C(=O)NCc1ccccc1` (relative stereo) [Compound No. 13, ethyl N-benzyl-2,3-epoxysuccinamate], the ID50 was 13.30 γ.
For `CCOC(=O)[C@@H]1O[C@H]1C(=O)NCc1ccco1` (relative stereo) [Compound No. 14, ethyl N-furfuryl-2,3-epoxysuccinamate], the ID50 was 67.57 γ.
For `CCOC(=O)[C@@H]1O[C@H]1C(=O)NCCc1ccccc1` (relative stereo) [Compound No. 15, ethyl N-phenethyl-2,3-epoxysuccinamate], the ID50 was 26.04 γ.
For `CCCNC(=O)[C@@H]1O[C@H]1C(=O)OCC` (relative stereo) [Compound No. 16, ethyl N-propyl-2,3-epoxysuccinamate], the ID50 was 22.73 γ.
With `CCOC(=O)[C@@H]1O[C@H]1C(=O)NCCC(C)C` (relative stereo) [Compound No. 17, ethyl N-isoamyl-2,3-epoxysuccinamate] the ID50 was 28.41 γ.
In the case of `CCOC(=O)[C@@H]1O[C@H]1C(=O)NC1CCCC1` (relative stereo) [Compound No. 18, ethyl N-cyclopentyl-2,3-epoxysuccinamate], the ID50 is reported as 22.36 γ.
With `CCOC(=O)[C@@H]1O[C@H]1C(=O)NC1CCCCC1` (relative stereo) [Compound No. 19, ethyl N-cyclohexyl-2,3-epoxysuccinamate] the ID50 was 20.83 γ.
In the case of `CCOC(=O)[C@@H]1O[C@H]1C(=O)NCC1CCCCC1` (relative stereo) [Compound No. 20, ethyl N-cyclohexanemethyl-2,3-epoxysuccinamate], the ID50 is reported as 20.49 γ.
In the case of `CCOC(=O)[C@@H]1O[C@H]1C(=O)N1CCOCC1` (relative stereo) [Compound No. 21], the ID50 is reported as 93.28 γ.
With `CCOC(=O)[C@@H]1O[C@H]1C(=O)N1CCSCC1` (relative stereo) [Compound No. 22, ethyl N-thiadiethylene-2,3-epoxysuccinamate] the ID50 was 95.01 γ.
For `CCOC(=O)[C@@H]1O[C@H]1C(=O)N1CCN(C)CC1` (relative stereo) [Compound No. 23, ethyl N-N'-methylaminodiethylene-2,3-epoxysuccinamate], the ID50 was 868.05 γ.
For `O=C(Nc1ccc(I)cc1)[C@@H]1O[C@H]1C(=O)OC1CCCC1` (relative stereo) [Compound No. 24, cyclopentyl N-4'-iodophenyl-2,3-epoxysuccinamate], the ID50 was 3.47 γ.
For `O=C(Nc1ccccc1)[C@@H]1O[C@H]1C(=O)OCCC1CCCC1` (relative stereo) [Compound No. 26, 2'-cyclopentylethyl N-phenyl-2,3-epoxysuccinamate], the ID50 was 2.08 γ.
`O=C(Nc1ccccc1)[C@@H]1O[C@H]1C(=O)OCCCC1CCCCC1` (relative stereo) [Compound No. 27, 3'-cyclohexylpropyl N-phenyl-2,3-epoxysuccinamate] was tested, and the ID50 was 3.05 γ.
In the case of `O=C(Nc1ccccc1)[C@@H]1O[C@H]1C(=O)Oc1ccccc1` (relative stereo) [Compound No. 28, phenyl N-phenyl-2,3-epoxysuccinamate], the ID50 is reported as 6.41 γ.
With `COc1ccccc1NC(=O)[C@@H]1O[C@H]1C(=O)OCc1ccccc1` (relative stereo) [Compound No. 29, benzyl N-2'-methoxyphenyl-2,3-epoxysuccinamate] the ID50 was 2.91 γ.
With `C=CCOC(=O)[C@@H]1O[C@H]1C(=O)Nc1ccccc1` (relative stereo) [Compound No. 30, allyl N-phenyl-2,3-epoxysuccinamate] the ID50 was 3.68 γ.
In the case of `CCOC(=O)[C@@H]1O[C@H]1C(=O)N(C)CC1CCCCC1` (relative stereo) [Compound No. 32, ethyl N-methyl-N-cyclohexanemethyl-2,3-epoxysuccinamate], the ID50 is reported as 71.40 γ.
With `COC(=O)[C@@H]1O[C@H]1C(=O)Nc1ccccc1C` (relative stereo) [Compound No. 35, Methyl N-2'-methylphenyl-2,3-epoxysuccinamate] the ID50 was 16.52 γ.
`CCCOC(=O)[C@@H]1O[C@H]1C(=O)Nc1ccc(I)cc1` (relative stereo) [Compound No. 36, Propyl N-4'-iodophenyl-2,3-epoxysuccinamate] was tested, and the ID50 was 4.04 γ.
With `COc1ccccc1NC(=O)[C@H]1O[C@@H]1C(=O)OC(C)C` (relative stereo) [Compound No. 37, Isopropyl N-2'-methoxyphenyl-2,3-epoxysuccinamate] the ID50 was 5.81 γ.
For `CC(C)COC(=O)[C@H]1O[C@@H]1C(=O)NCc1ccco1` (relative stereo) [Compound No. 39, Isobutyl N-furfuryl-2,3-epoxysuccinamate], the ID50 was 3.08 γ.
`CC#CCOC(=O)[C@H]1O[C@@H]1C(=O)NCC` (relative stereo) [Compound No. 41, 2'-Butynyl N-ethyl-2,3-epoxysuccinamate] was tested, and the ID50 was 15.23 γ.
In the case of `CC#CCOC(=O)[C@@H]1O[C@H]1C(=O)NCc1cccs1` (relative stereo) [Compound No. 42, 2'-Butynyl N-thenyl-2,3-epoxysuccinamate], the ID50 is reported as 14.15 γ.
For `CC(C)CCOC(=O)[C@H]1O[C@@H]1C(=O)Nc1ccccc1` (relative stereo) [Compound No. 43, Isoamyl N-phenyl-2,3-epoxysuccinamate], the ID50 was 3.01 γ.
With `O=C(NC1CCCCC1)[C@H]1O[C@@H]1C(=O)OC1CCCCC1` (relative stereo) [Compound No. 44, Cyclohexyl N-cyclohexyl-2,3-epoxysuccinamate] the ID50 was 3.14 γ.
For `O=C(Nc1ccccc1)[C@H]1O[C@@H]1C(=O)OC1C=CCC1` (relative stereo) [Compound No. 46, 2'-Cyclopentenyl N-phenyl-2,3-epoxysuccinamate], the ID50 was 2.98 γ.
For `O=C(NC1CCCC1)[C@H]1O[C@@H]1C(=O)Oc1ccccc1` (relative stereo) [Compound No. 47, Phenyl N-cyclopentyl-2,3-epoxysuccinamate], the ID50 was 3.64 γ.
In the case of `O=C(Nc1cccc(F)c1)[C@H]1O[C@@H]1C(=O)OCc1ccccc1` (relative stereo) [Compound No. 49, Benzyl N-3'-fluorophenyl-2,3-epoxysuccinamate], the ID50 is reported as 3.94 γ.
In the case of `COC(=O)[C@H]1O[C@@H]1C(=O)Nc1ccccc1` (relative stereo) [Compound No. 50, methyl N-phenyl-2,3-epoxysuccinamate], the ID50 is reported as 16.95 γ.
With `CCOC(=O)[C@H]1O[C@@H]1C(=O)Nc1cccc(C)c1` (relative stereo) [Compound No. 51, ethyl N-3'-methylphenyl-2,3-epoxysuccinamate] the ID50 was 18.66 γ.
With `CCCCOC(=O)[C@H]1O[C@@H]1C(=O)Nc1ccccc1` (relative stereo) [Compound No. 52, butyl N-phenyl-2,3-epoxysuccinamate] the ID50 was 5.32 γ.
`O=C(Nc1ccccc1)[C@H]1O[C@@H]1C(=O)OCC1CC=CCC1` (relative stereo) [Compound No. 53, 3'-cyclohexenemethyl N-phenyl-2,3-epoxysuccinamate] was tested, and the ID50 was 1.63 γ.
With `CCNC(=O)[C@H]1O[C@@H]1C(=O)OC` (relative stereo) [Compound No. 54, methyl N-ethyl-2,3-epoxysuccinamate] the ID50 was 10.07 γ.
